These results are taken from patent US20230225991A1, “COMPOUNDS FOR USE IN THE TREATMENT OF ACUTE INTERMITTENT PORPHYRIA” (VESTLANDETS INNOVASJONSSELSKAP AS, priority 2019, published 2023).

The target in data set [1] is T1, WT-HMBS (Homo sapiens, UniProt P08397).
T1 construct: Full-length HMBS was cloned into pET-28a(+)-TEV vector and transformed into BL21 (DE3) cells for expression; 6xHis (N, cleaved yes); TEV protease cleavage site (N, cleaved yes); made in house; host or cells: E. coli BL21 (DE3)
T1 sequence (P08397 1-361): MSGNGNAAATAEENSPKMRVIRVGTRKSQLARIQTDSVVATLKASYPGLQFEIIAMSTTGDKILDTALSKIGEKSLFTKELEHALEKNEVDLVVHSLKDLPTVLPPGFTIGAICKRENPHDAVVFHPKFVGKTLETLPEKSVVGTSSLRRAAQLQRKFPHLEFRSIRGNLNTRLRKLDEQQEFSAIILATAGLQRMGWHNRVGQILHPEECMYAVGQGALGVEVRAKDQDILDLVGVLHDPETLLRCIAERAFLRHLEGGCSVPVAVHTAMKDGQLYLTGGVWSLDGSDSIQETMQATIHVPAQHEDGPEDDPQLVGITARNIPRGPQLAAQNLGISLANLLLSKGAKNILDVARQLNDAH
Kind of data set: HMBS activity after pre-incubation with compound at 70° C. The format is biochemical. The settings on record: pre-incubation with compound at 70° C. 20 min, then standard assay 100 μM PBG at 37° C., 84 μM compound, 2% DMSO. Here is the method: The effect of the compounds on the stability of HMBS activity was assayed by pre-incubating the HMBS (4-5 μg) in 50 mM HEPES pH 8.2, 84 μM compound and 2% DMSO for 20 min at 70° C., and then placed on ice for 5 min. The enzymatic activity at 37° C. was subsequently measured as reported previously (Bustad et al., Bioscience reports 2013; 3 3(4)). Controls without compound but with equal concentration of DMSO were included. The remaining activity in the presence of compounds was normalized relative to DMSO-control (relative activity). […] USA, www.graphpad.com.
An enzymatic assay was performed to investigate the effect of compound BG-1 on the activity and conformational stability of HMBS. HMBS activity of the purified enzyme was measured in the absence and presence of compound BG-1 (at 84 μM) at standard conditions (37° C.) but also after pre-incubation at 70° C. for 20 min based on the high thermal stability of WT-HMBS.

Data set [2] has as its system Hmbs-deficient T1/T2−/− mice. The data set can be described thus: Mouse trial T1/T2-B, phenobarbital-induced biochemical acute attack. The format is in vivo. The settings on record: 20 mg/kg/day, 12 days; for Hepatic HMBS enzyme activity in liver homogenates: compared with control group; for Urinary ALA and PBG excretion: versus control group; for Increase in steady-state levels of HMBS in liver tissue: quantitative western immunoblotting. On the procedure:
The crude liver homogenates were passed through Zeba spin desalting columns (Thermo Fisher Scientific) to remove small molecules <2000 Da. 50 mM HEPES pH 8.2 was used as equilibration buffer. 25 μl filtrated homogenate (400-500 μg total protein) was added to 110 μl sample mix (50 mM HEPES, pH 8.2, 1% Triton™ X-100) and incubated for 10 min at 37° C. before adding PBG (1 mM). The reaction was stopped after 1 h by adding ice-cooled 100% TCA to a final concentration of 25%, incubated at room temperature (RT) for 10 min and centrifuged at 10,000 g for 10 min. The absorption was measured in the supernatant at A409 with baseline correction at A380 using NanoDrop™ 2000c spectrophotometer (Thermo Fisher Scientific). The activity of HMBS was expressed as relative activity in the compound-treated […] compared to DMSO-controls. A blank sample was prepared for each homogenate. The unpaired t-test (two tailed) was performed using GraphPad Prism.
Liver homogenates (5 μg total protein/lane) were loaded onto 10% Mini-Protean® TGX™ gels (Bio-Rad) and separated with Tris/Glycine/SDS electrophoresis buffer (Bio-Rad). Trans-Blot® Turbo™ Transfer Starter System (Bio-Rad) was used to transfer the proteins onto Immun-Blot® low fluorescence PVDF membranes (Bio-Rad). The membranes were then blocked with TBS containing 1% Tween® 20 (1% TBS-T) and 3% BSA for 1 h. HMBS was probed with 1:2,000 monoclonal mouse anti-HMBS (H-11, Santa Cruz Biotechnology), together with 1:1,000 rabbit anti-actin (Sigma-Aldrich), in 1% TBS-T, 3% BSA overnight, 4° C. Alexa Fluor 647 conjugated donkey-anti-mouse and Alexa Fluor 488 conjugated donkey-anti-rabbit (both Thermo Fisher Scientific) were used as secondary antibodies and incubated in 1:1,000 dilutions in 0.1% TBS-T for 1 h. Each step was followed by extensive wash with 0.1% TBS-T. Fluorescence detection was performed using G-Box Chemi-XRQ (Syngene Synoptics, Cambridge, UK) with filters UV06 and 705 nm for AF-488 and AF-647, respectively, and the band intensities of HMBS relative to the loading control (actin) were determined using ImageJ (Schneider et al., Nature methods 2012; 9(7): 671-5).

Data set [3] concerns Hmbs-deficient T1/T2−/− mice. Kind of data set: Mouse trial T1/T2-A, phenobarbital-induced biochemical acute attack.
Data set [4] has as its target T1, WT-HMBS. The data set can be described thus: Surface plasmon resonance (SPR), HMBS immobilized to sensor chip. The conditions noted are these: sigmoidal fitting of binding isotherm, 25° C., 0-200 μM compound; read-out: S0.5 (concentration for half-maximal binding), SPR. Here is the method:
Surface plasmon resonance experiments for the estimation of the concentration of compound at half-maximal binding (S0.5) were performed using a Biacore T200 (GE Healthcare) instrument at 25° C. 150 μg/ml WT-HMBS in 10 mM sodium acetate pH 4.5 was immobilized onto a CM5-S sensor chip through amine-coupling chemistry and PBS containing 0.05% surfactant P20 as running buffer, reaching immobilization levels ˜15,000. The baseline was equilibrated for 1-2 h, before the compounds were assayed in a concentration-dependent manner (0-200 μM), using running buffer with 5% DMSO and 30 μl/min flow rate. Contact and dissociation time was 60 s, with a final wash after 50% DMSO injection. Blank immobilization, solvent correction and negative control (assay buffer) were included for the analysis of the sensorgrams using the Biacore T200 Evaluation software v2.0. The allosteric sigmoidal curve fitting was performed using GraphPad Prism.
The binding of compounds BG-1 and BG-2 to HMBS was analyzed by surface plasmon resonance (SPR) and response units from concentration-dependent steady state measurements were analyzed assuming a 1:1 binding model. […] The interaction between compound BG-1 and HMBS was therefore further studied with Octet RED96 system with super streptavidin (SSA) biosensors. […]

Entries after “also recorded” stand apart in the source; their conditions may differ.

Turning to `O=Cc1cc(Cc2ccccc2Cl)cc([N+](=O)[O-])c1O` [BG-1], the “Relative activity, pre-inc. at 70° C” value in data set [1] is given as 1.01 ± 0.06. Further, in data set [2], the “Hepatic HMBS enzyme activity in liver homogenates” value is recorded as “significantly increased enzyme activity”; the “Urinary ALA and PBG excretion” value was “reduced”; the “Increase in steady-state levels of HMBS in liver tissue” value is on record as 2 fold. Moreover, in data set [2] (p<0.05 compared with control mice), the “Relative concentration of ALA in liver” value is listed as “decreased”. Moreover, the “Relative concentration of PBG in liver” value in data set [2] (p=0.053 compared with control mice) is recorded as “decreased”. Besides, the “Toxicity in treated mice” value in data set [3] (10 mg/kg/day oral gavage, 12 days, behavior and organ appearances) was “No apparent toxicity; also recorded: No toxic effect was registered”. Besides, the “HMBS protein levels or activity in erythrocytes or liver” value in data set [3] (10 mg/kg/day, 12 days, compared to non-treated Hmbs-deficient mice) was “did not cause any significant change”. Also, the “Urinary levels of ALA” value in data set [3] (10 mg/kg/day, day 12, compared to non-treated mice) was “slight decreasing tendency”.
For `O=C(c1ccccc1)c1ccc(Cl)c([N+](=O)[O-])c1` [BG-2], the Kd in data set [4] turned out to be 63 ± 3 µM. Further, in data set [2], the “Hepatic HMBS enzyme activity in liver homogenates” value is “significantly increased enzyme activity”; the “Urinary ALA and PBG excretion” value is on record as “reduced”; the “Increase in steady-state levels of HMBS in liver tissue” value was 2 fold.
